melting point [°C]	Structure (SMILES)
154 to 155	COc1ccc(COc2ccccc2CC(=O)O)cc1OCc1nc(-c2ccccc2)oc1C [Example 49, 2-[2-[4-methoxy-3-[(5-methyl-2-phenyl-4-oxazolyl)methoxy]benzyloxy]phenyl]acetic acid]
159 to 160	Cc1sc(-c2ccccc2)nc1CCOc1cc(COc2ccccc2CC(=O)O)on1 [Example 117, 2-[2-[[3-[2-(5-methyl-2-phenyl-4-thiazolyl)ethoxy]-5-isoxazolyl]methoxy]phenyl]acetic acid]
173 to 174	Cc1oc(-c2ccccc2)nc1COc1ccccc1COc1ccc(CC(=O)O)cc1 [Example 69, 2-[4-[2-[(5-methyl-2-phenyl-4-oxazolyl)methoxy]benzyloxy]phenyl]acetic acid]
100 to 101	COC(=O)Cc1cc(Br)ccc1OCc1ccc(OCc2nc(-c3ccccc3)oc2C)cc1 [Example 19, methyl 2-[5-bromo-2-[4-[(5-methyl-2-phenyl-4-oxazolyl)methoxy]benzyloxy]phenyl]acetate]
115 to 116	CCCc1oc(-c2ccccc2)nc1COc1ccc(COc2cccc(CC(=O)O)c2)cc1 [Example 87, 2-[3-[4-[(2-phenyl-5-propyl-4-oxazolyl)methoxy]benzyloxy]phenyl]acetic acid]
147 to 148	Cc1sc(-c2ccccc2)nc1COc1cc(COc2ccccc2CC(=O)O)on1 [Example 114, 2-[2-[[3-[(5-methyl-2-phenyl-4-thiazolyl)methoxy]-5-isoxazolyl]methoxy]phenyl]acetic acid]
122 to 123	CCOc1ccc(OCc2ccc(OCc3nc(-c4ccccc4)oc3C)cc2)cc1CC(=O)O [Example 5, 2-[2-ethoxy-5-[4-[(5-methyl-2-phenyl-4-oxazolyl)methoxy]benzyloxy]phenyl]acetic acid]
157 to 159	Cc1oc(-c2ccccc2)nc1COc1ccc(COc2ncccc2CC(=O)[O-])cc1.[K+]
160 to 161	COC(=O)Cc1cc(OC)ccc1OCc1ccc(OCc2nc(-c3ccccc3)oc2C)cc1 [Example 23, methyl 2-[5-methoxy-2-[4-[(5-methyl-2-phenyl-4-oxazolyl)methoxy]benzyloxy]phenyl]acetate]
80 to 81	COC(=O)Cc1ccccc1OCc1cc(OCCc2nc(-c3ccccc3)sc2C)no1 [Example 116, methyl 2-[2-[[3-[2-(5-methyl-2-phenyl-4-thiazolyl)ethoxy]-5-isoxazolyl]methoxy]phenyl]acetate]
187 to 188	Cc1oc(-c2ccccc2)nc1COc1ccc(COc2ccc3ccccc3c2CC(=O)O)cc1 [Example 39, 2-[2-[4-[(5-methyl-2-phenyl-4-oxazolyl)methoxy]benzyloxy]-1-naphthyl]acetic acid]
78 to 79	COC(=O)Cc1ccccc1OCc1ccc(OCCc2nc(-c3ccccc3)oc2C)nc1 [Example 118, methyl 2-[2-[[6-[2-(5-methyl-2-phenyl-4-oxazolyl)ethoxy]-3-pyridyl]methoxy]phenyl]acetate]
112 to 113	CCOc1cc(OCc2ccccc2OCc2nc(-c3ccccc3)oc2C)ccc1CCC(=O)O [Example 73, 3-[2-ethoxy-4-[2-[(5-methyl-2-phenyl-4-oxazolyl)methoxy]benzyloxy]phenyl]propionic acid]
86 to 87	CCOC(=O)CCc1c(OCc2ccc(OCc3nc(-c4ccccc4)oc3C)cc2)ccc2ccccc12 [Example 46, ethyl 3-[2-[4-[(5-methyl-2-phenyl-4-oxazolyl)methoxy]benzyloxy]-1-naphthyl]propionate]
116 to 118	CC(Nc1nc(-c2ccccc2)cs1)c1ccc(COc2ccc(CC(=O)O)cc2)cc1 (stereo not shown) [Example 128, 4-[4-[methyl(4-phenyl-2-thiazolyl)aminomethyl]benzyloxy]phenylacetic acid]
146 to 147	CCOc1ccc(OCc2ccccc2OCc2nc(-c3ccccc3)oc2C)cc1CCC(=O)O [Example 35, 3-[2-ethoxy-5-[2-[(5-methyl-2-phenyl-4-oxazolyl)methoxy]benzyloxy]phenyl]propionic acid]
